These are literature values, as cited in patent US9661851B1, “Synergistic herbicidal composition and use thereof” (ROTAM AGROCHEM INTERNATIONAL COMPANY LIMITED, priority 2015, dated 2017).

For this series the following is noted: hydrolysis in water, storage with moisture, in formulations; stated with reference to U.S. Ser. No. 14/957,768.

Regarding `COC(=O)c1ccc(CNS(C)(=O)=O)c(S(=O)(=O)NC(=O)Nc2nc(OC)cc(OC)n2)c1` [crystalline modification I of mesosulfuron-methyl] [methyl 2-[(4,6-dimethoxypyrimidin-2-ylcarbamoyl)sulfamoyl]-α-(methanesulfonamido)-p-toluate], the stability entry is given as “improved stability”.

`COC(=O)c1ccc(CNS(C)(=O)=O)c(S(=O)(=O)NC(=O)Nc2nc(OC)cc(OC)n2)c1` [mesosulfuron-methyl in the amorphous state] [methyl 2-[(4,6-dimethoxypyrimidin-2-ylcarbamoyl)sulfamoyl]-α-(methanesulfonamido)-p-toluate]: the stability result was “highly unstable”.
